Reference: patent US11369665B2, “Anti-inflammatory peptides and composition comprising the same” (GemVax & KAEL Co., Ltd., priority 2012, dated 2022)

Columns and labels:
HMGB1 [1] = assay: Western blot of HMGB1 in amyloid-β damaged neural stem cells; type: cell-based, rat; conditions: after the decrease by amyloid-β treatment, FIG. 15J
Description: HMGB1, a non-histone structure protein that binds to DNA, serves diverse roles within a cell; such as stabilizing nucleosome structure and regulating gene expression.

i-NOS = assay: 2D-electrophoresis protein expression in neural stem cells; type: cell-based, rat; conditions: 20 ug β-amyloid + PEP 1 treated group, versus negative control 1.0
Procedure: (§1) Protein expression level of PEP-1 treated group and untreated group was analyzed by 2D-electrophoresis technique and antibody microarray technique. Prepared 200 μg by extracting proteome from the neural stem cells cultured in Experiment 3-1 of Example 3. In addition, the group in which PEP-1 was not treated was used as the comparison group in the same condition.
(§2) 2D-electrophoresis was performed using 12% acrylamide gels. First gel electrophoresis was performed at PI 4˜10 N, using a gel size of 8.5×7 cm. After electrophoresis, it was dyed with Colloidal Coomassie Blue, and then compared expression by using PDQuest software to analyze each spot.
(§3) Difference in the expression levels of more than 1.5 times was identified using MALDI-TOF MS (Matrix Desorption/Ionization Time of Flight Mass Spectromestry). Among these, proteins correlated with inflammation-related signaling, such as i-NOS and HMGB-1 were identified (Refer to Table 6). The changes in protein expression levels either increased or decreased by 1.5 times by amyloid-β protein, but it was confirmed that expression level was regulated close to that of negative control when PEP-1 was added (Refer to FIGS. 14A-14B).
(§4) The Table 6 below is an analysis of expression levels of proteins associated with inflammation by 2D electrophoresis technique. The control group represents protein expression level of cells that were not treated with neither amyloid-β protein nor PEP-1.

GADD 153 = assay: as above; type: cell-based, rat; conditions: 20 ug β-amyloid + PEP 1 treated group, versus negative control 1.0
Procedure: as §1, §2, §3, §4

HSP 70 = assay: as above; type: cell-based, rat; conditions: 20 ug β-amyloid + PEP 1 treated group, versus negative control 1.0
Procedure: as §1, §2, §3, §4

MAP Kinase = assay: as above; type: cell-based, rat; conditions: 20 ug β-amyloid + PEP 1 treated group, versus negative control 1.0
Procedure: as §1, §2, §3, §4

HSP 90 = assay: as above; type: cell-based, rat; conditions: 20 ug β-amyloid + PEP 1 treated group, versus negative control 1.0
Procedure: as §1, §2, §3, §4

HMGB1 [2] = assay: as above; type: cell-based, rat; conditions: 20 ug β-amyloid + PEP 1 treated group, versus negative control 1.0
Procedure: as §1, §2, §3, §4

e-NOS = assay: as above; type: cell-based, rat; conditions: 20 ug β-amyloid + PEP 1 treated group, versus negative control 1.0
Procedure: as §1, §2, §3, §4

Pyk2 = assay: as above; type: cell-based, rat; conditions: 20 ug β-amyloid + PEP 1 treated group, versus negative control 1.0
Procedure: as §1, §2, §3, §4

IL-6 = IL-6 secretion measurement by ELISA in LPS-challenged RAW 264.7 cells; type: cell-based
Procedure: (§5) Raw 264.7 macrophage cell (KCBL, 40071) from Korea Cell Bank was maintained in Dulbecco's modified Eagle's medium (DMEM; PAA, Austria) containing 10% fetal bovine serum (FBS; GIBCO®), 100 unit/mL of streptomycin, and penicillin (Gibco Laboratories) at 37° C. with 5% CO2. Raw 264.7 cells were seeded into a 96-well plate at a density of 1×10^6 cells/mL and incubated overnight.
(§6) On the following day, the medium was replaced with fresh medium and 5 μg/mL of peptide (obtained as described in Experiment example 1) was added to the cells. After 30 min incubation of cells with the peptide 50 μL of LPS (to a final concentration of 1 μg/mL) was added, and cells were incubated for additional 24 hr. The experimental sample with the induction of inflammatory response was treated with 1 μg/mL mL lipopolysaccharide (LPS; SIGMA-ALDRICH®, USA) and control sample was treated with phosphate buffered saline (PBS; pH 7.2). The supernatant samples from each condition was collected in eppendorf tubes and subjected to further analysis.
To investigate the effect of PEP-1 on inhibiting proinflammatory cytokine production RAW 264.7 cell were pre-treated with PEP 1 at a concentration of 5 μg/mL challenged with LPS at a concentration of 1 μg/mL, and cells were further incubated for 24 hr. The supernatant samples containing cell culture medium was collected and analyzed for the cytokine levels using ELISA kits (eBioscience, San Diego).
96 wells plates were coated with 100 μL of capture antibodies (diluted in coating buffer to the concentration recommended by manufacturer's protocol) overnight at 4° C. Then, after washing the plates 5 times, 200 μL of assay diluents was added to each well and incubated for 1 hr at room temperature for blocking. […]
Following incubation with the secondary antibody, the plate was washed five times and incubated with 100 μL of avidin-HRP (BD Bioscience) for 30 min at room temperature. […] The reaction was stopped by adding 50 μl of 2N H2SO4 in each well The optical density at 450 nm was measured using a microplate reader. […]

[3] = system: Ki67, pAKT, PI3K, HSTF-1 and Bcl-2; assay: Western blot of anti-apoptotic proteins in amyloid-β damaged neural stem cells; type: cell-based, rat; conditions: 20 μM amyloid beta, PEP-1 1, 10 and 50 μM, FIGS. 15A-15F
HMGB1, TNF-α and COX = assay: Western blot of pro-inflammatory cytokine expression; type: cell-based; conditions: cells treated with both LPS and PEP-1
Procedure: as §5, §6
Protein expression level was determined by Western blot analysis. […] The membrane was incubated with ECL (enhanced chemiluminoesence) solution ([…]®), exposed to X-ray, and the level of protein expression was analyzed according to the exposure level shown on the X-ray film. […]

[4] = RAW 264.7 cells, LPS 1 μg/ml, PEP 1 5 μg/ml, 24 hr

EARPALLTSRLRFIPK [PEP-1]
HMGB1 in the cytoplasm of the nerve cells (HMGB1 [1]): increase of HMGB1
i-NOS expression (fold) (i-NOS): −1.1 fold
GADD 153 expression (fold) (GADD 153): 1.2 fold
HSP 70 expression (fold) (HSP 70): 1.2 fold
MAP Kinase expression (fold) (MAP Kinase): 1.0 fold
HSP 90 expression (fold) (HSP 90): 1.0 fold
HMGB1 expression (fold) (HMGB1 [2]): 2.8 fold
e-NOS expression (fold) (e-NOS): −1.1 fold
Pyk2 expression (fold) (Pyk2): 1.2 fold
cytokine IL-6 production % of control (IL-6; [4]): 28%
cytokine IL-6 production inhibition % (IL-6; [4]): 72%
decrease of proinflammatory cytokine secretion (IL-6) (IL-6; co-treatment with LPS): more than 70%
protein expression levels of anti-apoptotic proteins Ki67, pAKT, PI3K, HSTF-1, Bcl-2 [3]: increased the protein expression levels
decrease of pro-inflammatory cytokine levels (HMGB1, TNF-α and COX): more than 70%
